Measurements published in US6329378A, “Hydrazone, hydrazine and thiosemicarbazone derivatives as antifungal agents” (Anadys Pharmaceuticals, Inc., priority 2000, dated 2001).
≈ marks a conversion by molar mass, not a printed value.

Key:
C. albicans = assay: MIC, broth microdilution (NCCLS M27-A), C. albicans; format: cell-based, Candida albicans; details: 48 hours, C. albicans ATCC 10231; for MIC: Candida albicans, ATCC10231, 35° C.
Description: (§1) Compounds of the invention were tested for antifungal susceptibility using broth microdilution assay established by the National Committee for Clinical Laboratory Standards, in NCCLS Document M27-A, which is hereby incorporated by reference. Minimum inhibitory concentrations (MICs) and minimum fungicidal concentrations (MFCs) were measured.
(§2) Yeasts (Saccharomyces cerevisiae and Candida albicans) are cultured on SDA plates in a 35° C. incubator. Strains on SDA plates are stored at 4° C. and used as working stock cultures.
(§3) Inoculum for susceptibility testing is prepared from fresh 24 hour cultures. 5-10 colonies are scraped from the plate and suspended in three milliliters of sterile 0.85% saline (8.5 g/liter NaCl). The cell density of the solution is determined by measuring the absorbance in a spectrophotometer (Shimadzu UV-1201S UV-VIS Spectrophotometer) set at 600 nm. An absorbance value between 0.1 and 0.4 is required for an accurate reading.
(§4) For Candida albicans strains ATCC 10231, 1.0 OD600 unit is approximately 10^7 cells per ml. For Saccharomyces cerevisiae strain CTY552, 1.0 OD600 unit is slightly less than 10^7 cells per ml. Cell suspensions are diluted with the appropriate medium (typically RPMI-1640) to OD600 =0.0003 for Candida and OD600 =0.0004 for Saccharomyces. The diluted suspension contains approximately 3×10^3 cells per ml (this is a 2×concentration inoculum). Two 100 μl aliquots of this dilution are spread on SDA plates and incubated at 35° C. for 1-2 days to determine the precise number of colony forming units. An acceptable range for the inoculum (2×) is 1-5×10^3 cfu/ml (100-500 for 100 μl). Following two-fold dilution of the inoculum with compound, the final concentration of cells will be 0.5-2.5×10^3 per ml. The inoculum is kept at 4° C. and used within a few hours.
(§5) Stock solutions and concentrations tested will vary from compound to compound. In general, though, stock solutions of 12.8 mg/ml in DMSO (Sigma D-8779) are prepared. This will allow for a 128 μg/ml starting test concentration containing 1% DMSO. Stock solutions are stored at -20° C. and dilutions for antifungal testing are freshly prepared before each assay.
(§6) Stock solutions of Amphotericin B and Itraconazole are prepared at 1.6 mg/ml in DMSO. Amphotericin B is sold as a powder that is approximately 80% Amphotericin B. Stock solutions are made accordingly (2.0 mg of powder for a 1 ml solution of 1.6 mg/ml Amphotericin B).
(§7) Both of these (control and test compounds) represent 1:50 dilutions. For an assay with three fungal strains, 40 microliters of a stock solution are diluted to 2.0 ml with room temperature medium.
(§8) Antifungal susceptibility tests are setup in polystyrene, 96-well, flat bottom plates (Costar 9017). To every well in columns 2-12 is added 100 microliters of media. An electronic multichannel (12) pipettor with no tip on channel one is used. To every well in column one is added 200 microliters of diluted compound (32 μg/ml for Amphotericin B and Itraconazole controls, 256 μg/ml for test compounds, 100-fold dilution for natural product extracts). A manual multichannel (8) pipettor is then used to set up a series of 2-fold dilutions. 100 microliters is removed from each well of column one and mixed with 100 microliters in column 2. This is done successively (column two to column three etc.) to produce a set of 11 serial dilutions (column 12 is a drug free control).
(§9) To every well in two rows, 100 μl of inoculum (2×) of a single strain is added. To the final two rows on the plate (G & H), only media is added. Addition of inoculum is best accomplished using an electronic multichannel (12) pipettor. This setup (see below) creates a starting cell density of […] (100-500 per well) and drug concentration ranging from 16 μg/ml to […] for controls (Amphotericin B and Itraconazole), 128 μg/ml to 0.125 μg/ml for pure test compounds, and 200 to 204, 800-fold dilutions for natural product extracts.

S. serevisiae = assay: MIC, broth microdilution (NCCLS M27-A), S. cerevisiae; format: cell-based, Saccharomyces cerevisiae; details: Saccharomyces cerevisiae, 48 h, read-out: MIC S. serevisiae
Description: as §1, §2, §3, §4, §5, §6
Stock solutions of control compounds (1.6 mg/ml, Amphotericin B or Itraconazole) are initially diluted in medium to a concentration of 32 μg/ml while stock solutions of test compounds (typically 12.8 mg/ml) are diluted to 256 μg/ml. Both of these (control and test compounds) represent 1:50 dilutions. For an assay with three fungal strains, 40 microliters of a stock solution are diluted to 2.0 ml with room temperature medium.
as §8
To every well in two rows, 100 μl of inoculum (2×) of a single strain is added. To the final two rows on the plate (G & H), only media is added. Addition of inoculum is best accomplished using an electronic multichannel (12) pipettor. […]

A. Nidulans = assay: MIC, broth microdilution (NCCLS M27-A), A. nidulans; format: cell-based; details: 35° C., 48 hours; for MIC: Aspergillus nidulans
Description: as §1
Filamentous fungi (Aspergillus spp.) is cultured on PDA plates in a 35° C. incubator. Inoculum of Aspergillus for susceptibility testing is prepared from plates incubated at 35° C. for 5 days. Colonies are covered with 5 ml of sterile 0.85% saline (8.5 g/liter NaCl) and gently rocked for 10-15 minutes. To dislodge the conidia, an automatic pipettor is used to gently wash over the colonies. The saline solution is removed from the plate and the heavy particles are allowed to settle for 3-5 minutes. The upper suspension is removed and vortexed for 15 sec. The turbidity of the solution is determined by measuring the absorbance in a spectrophotometer (Shimadzu UV-1201S UV-VIS Spectrophotometer) set at 600 nm. An absorbance value between 0.1 and 0.4 is required for an accurate reading.
The cell suspension is diluted with the appropriate medium (typically RPMI-1640) to OD600 =0.0004. The final suspension should contain approximately 3×10^3 cfu per ml (this is a 2×concentrationinoculum). Two 100 μl aliquots of this dilution are spread on SDA plates and incubated at 35° C. for 1-2 days to determine the precise number of colony forming units. An acceptable range for the inoculum (2×) is 1-5×10^3 cfu/ml (100-500 for 100 μl). Following two-fold dilution of the inoculum with compound, the final concentration of cells will be 0.5-2.5×10^3 per ml. The inoculum is kept at 4° C. and used within a few hours.
as §5, §6, §7, §8, §9

For `O=C(O)c1ccc(O)c(C=NNc2ccccc2Cl)c1` [(26), 5-carboxyl-2-hydroxybenzaldehyde-N-2-chlorophenyl hydrazone], the MIC (C. albicans) was 2 µg/mL (≈ 6.88 µM), the MIC (S. serevisiae) was 1 µg/mL (≈ 3.44 µM) and the MIC (A. Nidulans) was 0.5 µg/mL (≈ 1.72 µM).
Work on `Cc1cccc(NN=Cc2cc(C(=O)O)ccc2O)c1` [(27), 5-carboxyl-2-hydroxybenzaldehyde-N-3-methyl-phenyl hydrazone] yielded an MIC (C. albicans) of 1 µg/mL (≈ 3.7 µM), an MIC (S. serevisiae) of 1 µg/mL (≈ 3.7 µM) and an MIC (A. Nidulans) of 0.25 µg/mL (≈ 0.925 µM).
For `COc1ccccc1NN=Cc1cc(C(=O)O)ccc1O` [(28), 5-carboxyl-2-hydroxybenzaldehyde-N-2-methoxy-phenyl hydrazone], the MIC (C. albicans) was 1 µg/mL (≈ 3.49 µM), the MIC (S. serevisiae) was 1 µg/mL (≈ 3.49 µM) and the MIC (A. Nidulans) was 0.25 µg/mL (≈ 0.873 µM).
`Cc1c(Cl)cccc1NN=Cc1cc(C(=O)O)ccc1O` [(29), 5-carboxyl-2-hydroxybenzaldehyde-N-3-chloro-2-methyl-phenyl hydrazone] gave an MIC (C. albicans) of 1 µg/mL (≈ 3.28 µM), an MIC (S. serevisiae) of 1 µg/mL (≈ 3.28 µM) and an MIC (A. Nidulans) of 1 µg/mL (≈ 3.28 µM).
`O=C(O)c1ccc(O)c(C=NNc2cccc(Cl)c2)c1` [(30), 5-carboxyl-2-hydroxybenzaldehyde-N-3-chloro-phenyl hydrazone] showed an MIC (C. albicans) of 2 µg/mL (≈ 6.88 µM), an MIC (S. serevisiae) of 1 µg/mL (≈ 3.44 µM) and an MIC (A. Nidulans) of 0.5 µg/mL (≈ 1.72 µM).
Compound `Oc1ccccc1CNNc1ccccc1` [(32)] has an MIC (C. albicans) of 1 µg/mL (≈ 4.67 µM), an MIC (S. serevisiae) of 2 µg/mL (≈ 9.33 µM) and an MIC (A. Nidulans) of 0.125 µg/mL (≈ 0.583 µM).
`COc1nccnc1NNCc1ccccc1O` [(33)] was tested, and the MIC (C. albicans) was 2 µg/mL (≈ 8.12 µM), the MIC (S. serevisiae) was 1 µg/mL (≈ 4.06 µM) and the MIC (A. Nidulans) was 4 µg/mL (≈ 16.2 µM).
For `FC(F)(F)c1cc(NC(=S)N/N=C/c2ccccn2)cc(C(F)(F)F)c1` [(37)], the MIC (C. albicans) was 0.5 µg/mL (≈ 1.27 µM), the MIC (S. serevisiae) was 1 µg/mL (≈ 2.55 µM) and the MIC (A. Nidulans) was 1 µg/mL (≈ 2.55 µM).
With `Fc1ccc(NC(=S)N/N=C/c2ccccn2)cc1` [(39)] the MIC (C. albicans) was 2 µg/mL (≈ 7.29 µM), the MIC (S. serevisiae) was 2 µg/mL (≈ 7.29 µM) and the MIC (A. Nidulans) was 4 µg/mL (≈ 14.6 µM).
In the case of `Oc1ccccc1/C=N/NC(=S)Nc1cccc(F)c1` [(40)], the MIC (C. albicans) is reported as 32 µg/mL (≈ 111 µM), the MIC (S. serevisiae) is reported as 2 µg/mL (≈ 6.91 µM) and the MIC (A. Nidulans) is reported as > 128 µg/mL.
With `S=C(N/N=C/c1ccccn1)Nc1ccccc1` [(41)] the MIC (C. albicans) was > 128 µg/mL, the MIC (S. serevisiae) was > 128 µg/mL and the MIC (A. Nidulans) was > 128 µg/mL.
`COC(=O)c1ccc(COc2ccc(/C=N/NC(=S)Nc3cccc(C(F)(F)F)c3)c(O)c2)cc1` [(43)] gave an MIC (C. albicans) of 0.5 µg/mL (≈ 0.993 µM), an MIC (S. serevisiae) of 0.5 µg/mL (≈ 0.993 µM) and an MIC (A. Nidulans) of 0.25 µg/mL (≈ 0.497 µM).
Work on `Oc1cc(OCc2ccccc2)ccc1/C=N/NC(=S)Nc1ccc(Cl)cc1` [(45), N-[(4-chloro-phenyl)]-2-[(E)-(4-benzyloxy-2-hydroxyphenyl)methylidene]-1-hydrazonecarbothiamide] yielded an MIC (C. albicans) of 1 µg/mL (≈ 2.43 µM), an MIC (S. serevisiae) of 0.5 µg/mL (≈ 1.21 µM) and an MIC (A. Nidulans) of 0.5 µg/mL (≈ 1.21 µM).
For `COC(=O)c1ccc(COc2ccc(/C=N/NC(=S)Nc3ccc(Cl)cc3)c(O)c2)cc1` [(46)], the MIC (C. albicans) was 1 µg/mL (≈ 2.13 µM), the MIC (S. serevisiae) was 0.25 µg/mL (≈ 0.532 µM) and the MIC (A. Nidulans) was 0.25 µg/mL (≈ 0.532 µM).
In the case of “N-[(4-dimethylamino)sulfonyl-N-piperidyl)phenyl)]-2-[(E)-(4-benzyloxy-2-hydroxyphenyl)methylidene]-1-hydrazonecarbothiamide [(52)]”, the “MIC C. albicans” value (C. albicans; 35° C.) is reported as > 64 µg/mL and the “MIC A. Nidulans” value (A. Nidulans) is reported as > 64 µg/mL.
